Measurements published in patent US10392366B2, “Azetidine compounds as GPR119 modulators for the treatment of diabetes, obesity, dyslipidemia and related disorders” (SANOFI, priority 2017, dated 2019).

These molecules were tested against T1, human GPR119 (Homo sapiens, UniProt Q8TDV5) (assay: Functional cellular assay measuring GPR119-mediated cAMP release (HTRF) in HEK-293 cells stably expressing recombinant GPR119). Settings: cell line expressing human GPR119, 30 minutes at room temperature.
T1 construct: expressed in transfected cells
T1 sequence (Q8TDV5 1-335): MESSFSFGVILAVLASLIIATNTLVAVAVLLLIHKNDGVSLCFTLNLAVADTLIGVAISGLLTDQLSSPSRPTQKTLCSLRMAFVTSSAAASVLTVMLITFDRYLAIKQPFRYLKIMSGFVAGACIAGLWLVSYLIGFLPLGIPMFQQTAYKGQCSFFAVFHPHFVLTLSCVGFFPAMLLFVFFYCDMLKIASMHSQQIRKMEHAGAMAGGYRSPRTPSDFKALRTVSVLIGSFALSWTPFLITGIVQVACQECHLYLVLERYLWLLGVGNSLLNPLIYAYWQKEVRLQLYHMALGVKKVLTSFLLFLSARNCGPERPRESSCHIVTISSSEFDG
Format: cell-based
Description: Functional Cellular Assays Measuring GPR119-mediated cAMP Release
Compounds of the present disclosure, which are agonists of GPR119, were characterized by functional assays measuring the cAMP response of HEK-293 cell lines stably expressing recombinant GPR119 from man, mouse or rat, or by using the hamster cell line HIT-T15 expressing GPR119 endogenously. The cAMP content was determined using a kit based on homogenous time-resolved fluorescence (HTRF) from Cisbio Corp. (cat. no. 62AM4PEC). For preparation, cells were split into T175 culture flasks and grown to near confluency in medium (DMEM/10% FCS for HEK-293 cells, and F-12K medium/10% horse serum/2.5% FCS for HIT-T15 cells, respectively). Medium was then removed and cells washed with PBS lacking calcium and magnesium ions, followed by proteinase treatment with accutase (Sigma-Aldrich, cat. no. A6964). Detached cells were washed and resuspended in assay buffer (1×HBSS; 20 mM HEPES, 0.1% BSA, 2 mM IBMX) and cellular density determined. They were then diluted to 400000 cells/mL and 25 μL-aliquots dispensed to the wells of 96-well plates. For measurement, 25 μL of test compound in assay buffer was added and incubated for 30 minutes at room temperature. After addition of HTRF reagents diluted in lysis buffer, the plates were incubated for 1 hour, followed by measuring the fluorescence ratio at 665 vs. 620 nm. Potency of the agonists was quantified by determining the concentrations that caused 50% of the maximal response/activation (EC50). See Table 6 for exemplary data obtained using the cell line expressing human GPR119.

| Structure (SMILES) | EC50 |
| --- | --- |
| C[S+]([O-])C1CN(c2ncc(N3CC[C@@H](Oc4ccc(C(=O)C5CC5)cc4)C3=O)cn2)C1 (single isomer, unassigned) [Compound 1-20] | 1.97 µM |
| C[S+]([O-])C1CN(c2ncc(N3CC[C@@H](Oc4ccc(C(=O)C5CC5)cc4)C3=O)cn2)C1 (single isomer, unassigned) [Compound 1-21] | 0.991 µM |
| C[S+]([O-])C1CN(c2ncc(N3CC[C@@H](Oc4ccc(OCC(F)(F)F)nc4)C3=O)cn2)C1 (single isomer, unassigned) [Compound 1-24] | 0.335 µM |
| C[S+]([O-])C1CN(c2ncc(N3CC[C@@H](Oc4ccc(OCC(F)(F)F)nc4)C3=O)cn2)C1 (single isomer, unassigned) [Compound 1-25] | 0.292 µM |
| CC(C)[S+]([O-])C1CN(c2ncc(N3CC[C@@H](Oc4ccc(OCC(F)(F)F)nc4)C3=O)cn2)C1 (single isomer, unassigned) [Compound 1-35] | 0.181 µM |
| CC(C)[S+]([O-])C1CN(c2ncc(N3CC[C@@H](Oc4ccc(OCC(F)(F)F)nc4)C3=O)cn2)C1 (single isomer, unassigned) [Compound 1-36] | 0.158 µM |
| CN(C)C(=O)C1CN(c2ncc(N3CCC(Cc4ccc(OCC(F)(F)F)nc4)C3=O)cn2)C1 (single isomer, unassigned) [Compound 1-45] | 0.203 µM |
| C[S+]([O-])C1CN(c2ncc(N3CCC(Cc4ccc(OCC(F)(F)F)nc4)C3=O)cn2)C1 (single isomer, unassigned) [Compound 1-46] | 0.411 µM |
| C[S+]([O-])C1CN(c2ncc(N3CCC(Cc4ccc(OCC(F)(F)F)nc4)C3=O)cn2)C1 (single isomer, unassigned) [Compound 1-47] | 1.63 µM |
| O=C1[C@H](Oc2ccc(OCC3CC3)nc2)CCN1c1cnc(N2CC(O)C2)c(F)c1 [Compound 1-02] | 0.206 µM |
| N#Cc1cc(N2CC[C@@H](Oc3ccc(Oc4ccc(F)cc4)nc3)C2=O)cnc1N1CC(O)C1 [Compound 1-03] | 0.255 µM |
| CN(C)C(=O)C1CN(c2ccc(N3CC[C@@H](Oc4ccc(OCC5CC5)nc4)C3=O)cn2)C1 [Compound 1-06] | 0.17 µM |
| CN(C)C(=O)C1CN(c2ccc(N3CC[C@H](Oc4ccc(OCC(F)(F)F)nc4)C3=O)cn2)C1 [Compound 1-11] | 0.421 µM |
| CN(C)C(=O)C1CN(c2ncc(N3CC[C@H](Oc4ccc(OCC(F)(F)F)nc4)C3=O)cn2)C1 [Compound 1-13] | 0.257 µM |

The remaining lines, values ahead:

| EC50 | Structure (SMILES) |
| --- | --- |
| 0.157 µM | CN(C)C(=O)C1CN(c2ncc(N3CCC(Cc4ccc(OCC(F)(F)F)nc4)C3=O)cn2)C1 (single isomer, unassigned) [Compound 1-42] |
| 0.116 µM | CS(=O)(=O)C1CN(c2ncc(N3CCC(Cc4ccc(OCC(F)(F)F)nc4)C3=O)cn2)C1 (single isomer, unassigned) [Compound 1-43] |
| 0.138 µM | CS(=O)(=O)C1CN(c2ncc(N3CCC(Cc4ccc(OCC(F)(F)F)nc4)C3=O)cn2)C1 (single isomer, unassigned) [Compound 1-44] |
| 0.057 µM | N#Cc1cc(N2CC[C@@H](Oc3ccc(OCC4CC4)nc3)C2=O)cnc1N1CC(O)C1 [Compound 1-01] |
| 0.07 µM | CN(C)C(=O)C1CN(c2ncc(N3CC[C@@H](Oc4ccc(OCC5CC5)nc4)C3=O)cc2F)C1 [Compound 1-04] |
| 0.061 µM | CN(C)C(=O)C1CN(c2ncc(N3CC[C@@H](Oc4ccc(OCC5CC5)nc4)C3=O)cc2C#N)C1 [Compound 1-05] |
| 0.03 µM | COC(=O)C1CN(c2ccc(N3CC[C@@H](Oc4ccc(OCC5CC5)nc4)C3=O)cn2)C1 [Compound 1-07] |
| 0.092 µM | CN(C)C(=O)C1CN(c2ncc(N3CC[C@@H](Oc4ccc(Oc5ccc(F)cc5)nc4)C3=O)cc2C#N)C1 [Compound 1-08] |
| 0.064 µM | CN(C)C(=O)C1CN(c2ncc(N3CC[C@@H](Oc4ccc(OCC(F)(F)F)nc4)C3=O)cc2C#N)C1 [Compound 1-09] |
| 0.044 µM | CN(C)C(=O)C1CN(c2ccc(N3CC[C@@H](Oc4ccc(OCC(F)(F)F)nc4)C3=O)cn2)C1 [Compound 1-10] |
| 0.05 µM | CN(C)C(=O)C1CN(c2ncc(N3CC[C@@H](Oc4ccc(OCC(F)(F)F)nc4)C3=O)cn2)C1 [Compound 1-12] |
